Test results published in US4296112A, “Cephalosporins” (Mitsui Toatsu Chemicals, Inc., priority 1979, dated 1981).
Converted amounts (≈) assume the structure as drawn. Where two headings read alike, the source gives them in different places.

Key:
[1] = system: Bacillus cereus (IAM 1792); assay: MIC, agar plate dilution (Referential Example 1, Table 1); type: cell-based; conditions: IAM1792, HIA medium plate, 37° C., 18 hours, read-out: Minimum growth inhibitory concentration (MIC)
Protocol: (§1) The antibacterial activities of the cephalosporins of this invention were measured using the sodium salts of the compounds obtained in Synthesis Examples 1 and 2. The procedure and the results are shown in Referential Example 1.
(§2) Carbenicillin sodium salt (CB-PC) and cephazoline sodum salt (CEZ) were used as controls.
(§3) The antibacterial activities of the test compounds against various Gram-positive and Gram-negative bacteria were determined in a customary manner by the minimum growth inhibitory concentration method (MIC method).
(§4) The experimental procedure was as follows:
(§5) A commercially available heart infusion agar medium (to be abbreviated HIA medium) was used as an assay medium, and a commercially available trypto-soy bouillon medium (to be abbreviated TSB) was used as a medium for the growth of test bacterial strains.
(§6) The test compound was diluted with the melted HIA medium to 100 μg/ml as a maximum concentration, and then serially diluted double. The dilutions were poured into sterilized Petri dishes respectively and allowed to cool and solidify to prepare plates containing the test compound.
(§7) The test bacterial strain was cultivated at 37° C. for 18 to 24 hours in the TSB medium. The culture broth was diluted to 50 to 500 times with a freshly prepared TSB culture medium, and one platinum loopful of the dilution was inoculated in each of the plates containing the test compound.

[2] = system: Klebsiella pneumonia (F-5089); assay: as above; type: cell-based; conditions: Klebsiella pneumoniae; HIA medium plate, 37° C., 18 hours; read-out: Minimum growth inhibitory concentration (MIC)
Protocol: as §1, §2, §3, §4, §5, §6, §7

Proteus morganii (C-39) = assay: as above; type: cell-based; conditions: Morganella morganii; HIA medium plate, 37° C., 18 hours; read-out: Minimum growth inhibitory concentration (MIC)
Protocol: as §1, §2, §3, §4, §5, §6, §7

Proteus rettgeri (T-2) = assay: as above; type: cell-based; conditions: Providencia rettgeri; HIA medium plate, 37° C., 18 hours; read-out: Minimum growth inhibitory concentration (MIC)
Protocol: as §1, §2, §3, §4, §5, §6, §7

Proteus vulgaris (OX-19) = assay: as above; type: cell-based; conditions: 18 h, read-out: Minimum growth inhibitory concentration (MIC)
Protocol: as §1, §2, §3, §4, §5, §6, §7

[3] = system: Pseudomonas aeruginosa (395); assay: as above; type: cell-based; conditions: read-out: Minimum growth inhibitory concentration (MIC)
Protocol: as §1, §2, §3, §4, §5, §6, §7

[4] = system: Pseudomonas aeruginosa (718); assay: as above; type: cell-based; conditions: HIA medium plate, 37° C., 18 hours, read-out: Minimum growth inhibitory concentration (MIC)
Protocol: as §1, §2, §3, §4, §5, §6, §7

[5] = system: Pseudomonas aeruginosa (ATCC 10145); assay: as above; type: cell-based; conditions: ATCC10145, HIA medium plate, 37° C., 18 hours, read-out: Minimum growth inhibitory concentration (MIC)
Protocol: as §1, §2, §3, §4, §5, §6, §7

[6] = system: Pseudomonas aeruginosa (IFO-3901); assay: as above; type: cell-based; conditions: IFO3901, HIA medium plate, 37° C., 18 hours, read-out: Minimum growth inhibitory concentration (MIC)
Protocol: as §1, §2, §3, §4, §5, §6, §7

[7] = system: Pseudomonas aeruginosa (NCTC 7244); assay: as above; type: cell-based; conditions: NCTC7244, HIA medium plate, 37° C., 18 hours, read-out: Minimum growth inhibitory concentration (MIC)
Protocol: as §1, §2, §3, §4, §5, §6, §7

[8] = system: Salmonella enteritidis (KB-21); assay: as above; type: cell-based; conditions: Salmonella enterica, HIA medium plate, 37° C., 18 hours, read-out: Minimum growth inhibitory concentration (MIC)
Protocol: as §1, §2, §3, §4, §5, §6, §7

[9] = system: Serratia marcescens (S-33); assay: as above; type: cell-based; conditions: HIA medium plate, 37° C., 18 hours, read-out: Minimum growth inhibitory concentration (MIC)
Protocol: as §1, §2, §3, §4, §5, §6, §7

Shigella flexneri (K-A) = assay: as above; type: cell-based; conditions: HIA medium plate, 37° C., 18 hours, read-out: Minimum growth inhibitory concentration (MIC)
Protocol: as §1, §2, §3, §4, §5, §6, §7

[10] = system: Staphylococcus aureus (Y-8); assay: as above; type: cell-based; conditions: HIA medium plate, 37° C., 18 hours, read-out: Minimum growth inhibitory concentration (MIC)
Protocol: as §1, §2, §3, §4, §5, §6, §7

[11] = system: Streptococcus faecalis (Hoshi); assay: as above; type: cell-based; conditions: Enterococcus faecalis; HIA medium plate, 37° C., 18 hours; read-out: Minimum growth inhibitory concentration (MIC)
Protocol: as §1, §2, §3, §4, §5, §6, §7

[12] = system: Pseudomonas aeruginosa (NCTC 7244); assay: MIC in HIB medium by turbidity (Referential Example 2, Table 2); type: cell-based; conditions: NCTC7244, 18 h, 37° C.
Protocol: (§8) The compounds obtained in Synthesis Examples 1 to 4 were tested in the following manner.
(§9) A suspension of Pseudomonas aeruginosa (NCTC 7244) cultivated at 37° C. for 18 hours in a heart infusion broth medium (HIB medium) in a final amount of 10^5, 10^6 and 10^7 cells/ml in an HIB medium containing each of the test compounds which was obtained in the same way as in Referential Example 1 except that the maximum concentration of the test compound was 200 μg/ml. The bacterial strain was cultivated at 37° C. for 18 hours, and the turbidity of the culture broth was evaluated with the naked eye. The minimum concentration of the test compound at which no turbidity was noted was defined as MIC.

[13] = system: Pseudomonas aeruginosa (NCTC 7244); assay: Minimum bactericidal concentration (Referential Example 2, Table 2); type: cell-based; conditions: NCTC7244, 18 h, subculture on HIA medium
Protocol: as §8, §9
The growth of the bacterial strain was evaluated.

[14] = Blood level in rats after intramuscular administration (Experimental Example 1, Table 3); type: in vivo; conditions: rat, im, 20 mg/kg i.m., serum, read-out: Blood level after administration (average value ± standard deviation); for concentration at 0.25 h: 15 minutes; for concentration at 0.5 h: 30 minutes; for concentration at 1 h: 60 minutes; for concentration at 2 h: 120 minutes
Protocol: The compounds of this invention prepared in Synthesis Examples 1 and 2 were each administered intramuscularly to rats, and the concentrations of the compounds in the blood were determined.
Each of the test compounds was intramuscularly injected into the femoral part of rats in a customary manner in a dose of 20 mg/kg for each rat. The blood was drawn by incising the cervical artery and vein at the end of 15 minutes, 30 minutes, 60 minutes, 120 minutes, and 240 minutes after the injection. The separated sera were used for the measurement of the blood level of the test compounds. The concentrations of the test compounds in the sera were determined by a thin-layer cup method using Micrococcus luteus ATCC 9341 as an assay microorganism.

[15] = Acute toxicity (LD50) in mice, intravenous (Experimental Example 2); conditions: mouse, in vivo; ICR male mice, intravenous (tail), two weeks observation; estimated; read-out: 50% lethal dose (LD50)
Protocol: Each of the compounds was administered intravenously to the tail of each mouse in a customary manner in a dose of 500 mg/kg and 1000 mg/kg, and over two weeks from then, the states of the mice were observed. It was consequently estimated that the LD50 values of each of these compounds was at least 1000 mg/kg.

Row | SMILES | MIC [1] [µg/mL] | MIC [2] [µg/mL] | MIC (Proteus morganii (C-39)) [µg/mL] | MIC (Proteus rettgeri (T-2)) [µg/mL] | MIC (Proteus vulgaris (OX-19)) [µg/mL] | MIC [4] [µg/mL] | MIC [5] [µg/mL] | MIC [6] [µg/mL] | MIC [7] [µg/mL] | MIC [8] [µg/mL] | MIC [9] [µg/mL] | MIC (Shigella flexneri (K-A)) [µg/mL] | MIC [10] [µg/mL] | MIC [11] [µg/mL] | MIC ([12]; 10^5 cells/ml inoculated) [µg/mL] | MIC ([12]; 10^6 cells/ml inoculated) [µg/mL] | MIC ([12]; 10^7 cells/ml inoculated) [µg/mL] | MBC ([13]; 10^5 cells/ml inoculated) [µg/mL] | MBC ([13]; 10^6 cells/ml inoculated) [µg/mL] | MBC ([13]; 10^7 cells/ml inoculated) [µg/mL] | also measured
1 | Cc1nnc(SCC2=C(C(=O)O)N3C(=O)C(NC(=O)[C@H](NC(=O)c4cnc5c(c4O)C(=O)CCC5)c4ccc(O)cc4)C3SC2)s1 (single isomer, unassigned) [Synthesis Example 2] | 12.5 (≈ 18.3 µM) | 1.56 (≈ 2.28 µM) | 6.25 (≈ 9.15 µM) | 1.56 (≈ 2.28 µM) | 0.78 (≈ 1.14 µM) | 12.5 (≈ 18.3 µM) | 12.5 (≈ 18.3 µM) | 6.25 (≈ 9.15 µM) | 12.5 (≈ 18.3 µM) | 0.2 (≈ 0.293 µM) | 12.5 (≈ 18.3 µM) | 0.2 (≈ 0.293 µM) | 3.13 (≈ 4.58 µM) | 12.5 (≈ 18.3 µM) | 12.5 (≈ 18.3 µM) | 12.5 (≈ 18.3 µM) | > 200 | 12.5 (≈ 18.3 µM) | 12.5 (≈ 18.3 µM) | > 200 | MIC ([3]; HIA medium plate, 37° C., 18 hours): 3.13 µg/mL (≈ 4.58 µM); concentration at 0.25 h [14]: 22800 ± 2600 ng/mL; concentration at 0.5 h [14]: 16100 ± 3000 ng/mL; concentration at 1 h [14]: 7600 ± 1800 ng/mL; concentration at 2 h [14]: 2500 ± 1200 ng/mL; LD50 at 336 h [15]: ≥ 1000 mg/kg
2 | CC(=O)OCC1=C(C(=O)O)N2C(=O)C(NC(=O)[C@H](NC(=O)c3cnc4c(c3O)C(=O)CCC4)c3ccc(O)cc3)C2SC1 (single isomer, unassigned) [Synthesis Example 1, 7-[D-(-)-α-(4-hydroxy-5-oxo-5,6,7,8-tetrahydroquinoline-3-carboxamide)-α-(4-hydroxyphenyl)acetamido]-3-acetoxymethyl-Δ^3-cephem-4-carboxylic acid] | 25 (≈ 40.9 µM) | 3.13 (≈ 5.13 µM) | 12.5 (≈ 20.5 µM) | 3.13 (≈ 5.13 µM) | 1.56 (≈ 2.55 µM) | 12.5 (≈ 20.5 µM) | 12.5 (≈ 20.5 µM) | 12.5 (≈ 20.5 µM) | 12.5 (≈ 20.5 µM) | 0.78 (≈ 1.28 µM) | 25 (≈ 40.9 µM) | 0.39 (≈ 0.639 µM) | 3.13 (≈ 5.13 µM) | 25 (≈ 40.9 µM) | 12.5 (≈ 20.5 µM) | 12.5 (≈ 20.5 µM) | 25 (≈ 40.9 µM) | 12.5 (≈ 20.5 µM) | 25 (≈ 40.9 µM) | > 200 | MIC ([3]; 18 h): 1.56 µg/mL (≈ 2.55 µM); concentration at 0.25 h [14]: 14000 ± 2200 ng/mL; concentration at 0.5 h [14]: 9800 ± 3100 ng/mL; concentration at 1 h [14]: 6800 ± 2200 ng/mL; concentration at 2 h [14]: 2200 ± 1000 ng/mL; LD50 at 336 h [15]: ≥ 1000 mg/kg
